Consider three molecules from patent publication US6864271B2, “Synergistic combinations including N-acylated 4-hydroxyphenylamine derivatives” (The Foundation for the LSU Health Sciences Center, priority 2002, dated 2005).

Data set [1] concerns mice. Briefly: abdominal stretch assay (i.p. acetic acid). The format is in vivo, mouse. The conditions noted are these: oral, FIG. 1; for number of abdominal stretches (percentage of control): 55 min before i.p. 10 ml/kg 0.4% acetic acid, counted 10 min.
The subject of data set [2] is C57/b16 mice. Briefly: hepatotoxicity study, transaminase activity after oral dosing. The conditions noted are these: 24 hours after oral dose in corn oil; acetaminophen/SCP-1 3.7 mmole/kg, codeine 50 mg/kg; FIG. 3.
The test system of data set [3] is mice. The conditions noted are these: cited from earlier work.
For data set [4], the system named is C57/b16 mice. The settings on record: prior work (Paul et al., 1998; Bazan patents); cited from earlier work.
Data set [5] relates to mice. The conditions noted are these: background statement; cited from earlier work.
For data set [6] the following is noted: background statement; cited from earlier work.
For data set [7] the following is noted: background statement; cited from earlier work. The source holds these as a separate data set.

What is called LD50 is the dose at which mortality reaches 50%.

With `COc1ccc2c3c1O[C@H]1[C@@H](O)C=C[C@H]4[C@@H](C2)N(C)CC[C@@]341` [codeine, reference compound], in the data set with mice [1], the “number of abdominal stretches (percentage of control)” value (“number … (percentage of control)” for short) was “dose-dependent decrease”. Moreover, the “GPT activity in serum” value with C57/b16 mice [2] is listed as “neither SCP-1 nor codeine, nor the combination of both, produced any significant increase”.
`CC(=O)Nc1ccc(O)cc1` [acetaminophen, reference compound]: the “number … (percentage of control)” value in the data set on mice [1] was “dose-dependent decrease”. Besides, the LD50 in the data set on mice [3] (mice) was 3.7 mmol/kg.
As to `O=C(CN1C(=O)c2ccccc2S1(=O)=O)Nc1ccc(O)cc1` [SCP-1], the hepatotoxicity entry in the data set with C57/b16 mice [4] is “lower in hepatotoxicity”. In the data set on mice [5], the “potency compared with acetaminophen, abdominal stretch” value was “more potent”. In addition, the “potency compared with acetaminophen, formalin” value in data set [6] is given as “more potent”. In addition, the “analgesic potency compared with acetaminophen” value with mice [1] (abdominal stretch assay, mice) is recorded as “significantly greater than acetaminophen”. In addition, the “number … (percentage of control)” value with mice [1] is reported as “dose-dependent decrease”. For the same molecule, in the data set on mice [3] (Paul et al., 1998), the “toxicity compared with acetaminophen” value is recorded as “lower in toxicity”. In data set [7], the “potency compared with acetaminophen, Freund's adjuvant-induced inflammation” value is listed as “more potent”. Besides, the “GPT activity in serum” value in the data set with C57/b16 mice [2] was “neither SCP-1 nor codeine, nor the combination of both, produced any significant increase”.
